The source of these data is US7494993B2, “Amide derivatives of 7-amino-3-phenyl-dihydropyrimido[4,5-d]pyrimidinones, their manufacture and use as pharmaceutical agents” (Hoffmann-La Roche Inc., priority 2004, dated 2009).

In test [1] the target is T1, Src (p60^c-src, partially purified) (Homo sapiens, UniProt P12931).
T1 construct: purchased UBI, Upstate Biotech, Inc
The test is described as follows: SRC-Inhibitor-Assay, time-resolved fluorescence kinase assay (Src). The test is classed as biochemical. Particulars: ATP 5 μM; enzyme pre-incubated with inhibitor 15 min at 15° C. As to the method: (§1) The activity of the compounds according to this invention as inhibitors for the src-family tyrosine kinases was shown by using the following assay. • SRC-Inhibitor-Assay Parameters: • Reaction mixture: • ATP 5 μM • Peptide (Ro+Ja133-Ro): 10 μM • Ja133-Ro 196 nM • Ro 9.8 μM • PT66 230 ng/ml • Assay buffer: 4 mM MgCl2 • 2 mM TCEP • 50 mM HEPES • 0.1% Tween 20 • pH 7.3 • Enzyme: 2.5 U/ml • Inhibitor: max. 25 μM • min. 0.42 nM
(§2) Material: • Eu-labelled phosphotyrosine antibody: for Lck Cisbio Mab PT66-K, • for Src EG&G Wallac PT66 Eu-W1024 (all commercially available). • Peptides: Ro: NH2-A-E-E-E-I-Y-G-E-F-E-A-K-K-K-K-CONH2, and • Ja133-Ro: Ja133-G-Aminocaprylic acid-A-E-E-E-I-Y-G-E-F-E-A-K-K-K-K-CONH2, wherein Ja133 is LightCycler-Red 640-N-hydroxy succinimide ester; • whereby both peptides were synthesized by an optimized solid phase peptide synthesis protocol (Merrifield, Fed. Proc. Fed. Amer. Soc. Exp. Biol. 21 (1962) 412) on a Zinsser SMP350 peptide synthesizer. Shortly, the peptide was assembled on 160 mg (22.8 μmol scale) of a Rink-Linker modified polystyrene solid phase by repeatedly conjugating an twenty fold excess of amino acids each protected by temporary piperidine labile Fmoc- and permanent acid labile tert-Bu-, BOC- and O-tert-Bu-groups depending on the side chain function. The substrate sequence AEEEIYGEFEAKKKK was N-terminal additionally mounted with the spacer amino acids Aminocaprylic acid and Glycin. After cleavage of the N-terminal temporary protecting group the still attached and protected peptide was labeled with a 1.5 fold amount of LightCycler-Red 640-N-hydroxy succinimide ester (purchased from Roche Diagnostics GmbH) and triethylamine. After 3 hrs. the resin was washed with Dimethylformamide and Isopropanol until the eluates of the blue resin got colourless. […] The substrate was finally isolated by a preparative reverse phase HPLC purification.
(§3) The purification yielded 12.2 mg RP-HPLC single peak pure blue material (lyophilisate). The identity was proven by MALDI mass spectroscopy [2720.0]. • Enzymes: Upstate Lck (p56^kk, active), Upstate Src (p60^c-src, partially purified) were purchased from UBI, Upstate Biotech, Inc.
(§4) Time-resolved Fluorescence Assay: Reader: Perkin Elmer, Wallac Viktor 1420-040 multilabel counter; Liquid handling system: Beckman Coulter, Biomek 2000.
(§5) ATP, Tween™ 20, 4-(2-hydroxyethyl)-1-piperazineethanesulfonic acid (HEPES) were purchased from Roche Molecular Biochemicals, MgCl2 and MnCl2 were purchased from Merck Eurolab, Tris(2-carboxyethyl)phosphine hydrochloride (TCEP) was purchased from Pierce, 384 Well low volume fluorescence plates was purchased from Falcon.
(§6) At first the enzyme is pre-incubated for 15 min. at 15° C. in aqueous solution with corresponding amounts of inhibitors according to this invention. Then the phosphorylation reaction is started by adding a reaction mixture, containing ATP, Peptide and PT66, and subsequent shaking. The proceeding of this reaction is immediately monitored using time resolved fluorescence spectroscopy in a suitable well plate reader.
(§7) The IC50-values can be obtained from the reaction rates by using a non-linear curve fit (XLfit software (ID Business Solution Ltd., Guilford, Surrey, UK))

A further test concerns the target T2, Lck (p56^kk, active) (Homo sapiens, UniProt P06239).
T2 construct: purchased UBI, Upstate Biotech, Inc
Description: SRC-Inhibitor-Assay, time-resolved fluorescence kinase assay (Lck). The test is classed as biochemical. The conditions noted are these: ATP 5 μM; enzyme pre-incubated with inhibitor 15 min at 15° C. As to the method: as §1, §2, §3, §4, §5, §6, §7

T1 sequence (P12931 whole entry, species assumed): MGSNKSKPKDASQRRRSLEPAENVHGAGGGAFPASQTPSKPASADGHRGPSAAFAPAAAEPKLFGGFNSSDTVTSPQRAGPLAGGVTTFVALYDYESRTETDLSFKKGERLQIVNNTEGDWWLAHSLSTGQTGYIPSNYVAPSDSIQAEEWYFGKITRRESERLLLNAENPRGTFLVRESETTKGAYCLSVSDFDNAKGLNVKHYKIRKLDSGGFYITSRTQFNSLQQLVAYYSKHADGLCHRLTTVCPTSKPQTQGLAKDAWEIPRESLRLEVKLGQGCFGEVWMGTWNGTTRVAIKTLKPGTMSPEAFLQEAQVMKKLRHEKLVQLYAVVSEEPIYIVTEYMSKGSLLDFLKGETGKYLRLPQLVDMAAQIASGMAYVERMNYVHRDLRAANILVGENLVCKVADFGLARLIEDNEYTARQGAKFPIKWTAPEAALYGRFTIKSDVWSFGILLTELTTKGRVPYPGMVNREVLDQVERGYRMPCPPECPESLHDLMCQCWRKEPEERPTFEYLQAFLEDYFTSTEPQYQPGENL
T2 sequence (P06239 whole entry, species assumed): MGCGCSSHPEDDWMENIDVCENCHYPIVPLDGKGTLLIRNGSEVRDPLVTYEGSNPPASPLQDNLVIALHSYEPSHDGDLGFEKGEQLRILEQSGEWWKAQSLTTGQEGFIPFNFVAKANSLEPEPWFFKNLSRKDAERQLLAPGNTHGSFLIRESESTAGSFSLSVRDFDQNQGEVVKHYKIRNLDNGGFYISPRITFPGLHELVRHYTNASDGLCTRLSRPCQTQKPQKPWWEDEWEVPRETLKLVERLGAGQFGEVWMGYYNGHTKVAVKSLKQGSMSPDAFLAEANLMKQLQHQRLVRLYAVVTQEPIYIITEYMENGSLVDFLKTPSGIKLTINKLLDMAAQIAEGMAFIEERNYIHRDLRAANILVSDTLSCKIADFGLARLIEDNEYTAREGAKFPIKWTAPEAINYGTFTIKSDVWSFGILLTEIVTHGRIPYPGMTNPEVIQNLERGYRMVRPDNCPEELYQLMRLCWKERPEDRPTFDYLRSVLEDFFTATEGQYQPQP

As usually defined, the IC50 is the concentration that inhibits the measured activity by half. High values mean weaker potency, low ones greater potency. Consider `CN1C(=O)N(c2cc(NC(=O)c3ccc(-c4ccccc4)cc3)ccc2Cl)Cc2cnc(N)nc21` [Example 1, Biphenyl-4-carboxylic acid[3-(7-amino-1-methyl-2-oxo-1,4-dihydro-2H-pyrimido[4,5-d]pyrimidin-3-yl)-4-chloro-phenyl]-amide], for which the concentration for half-maximal inhibition (IC50) in test [1] was 50 to 150 nM; at Lck (p56^kk, active), 50 to 150 nM.
Take `CN1C(=O)N(c2cc(NC(=O)c3cccc(-c4ccccc4)c3)ccc2Cl)Cc2cnc(N)nc21` [Example 2-3, Biphenyl-3-carboxylic acid [3-(7-amino-1-methyl-2-oxo-1,4-dihydro-2H-pyrimido[4,5-d]pyrimidin-3-yl)-4-chloro-phenyl]-amide]: the IC50 in test [1] was in the range of 50 to 150 nM; against Lck (p56^kk, active), 50 to 150 nM.
For the compound `CN1C(=O)N(c2cc(NC(=O)c3ccc(N4CCOCC4)cc3)ccc2Cl)Cc2cnc(N)nc21` [Example 2-7, N-[3-(7-Amino-1-methyl-2-oxo-1,4-dihydro-2H-pyrimido[4,5-d]pyrimidin-3-yl)-4-chloro-phenyl]-4-morpholin-4-yl-benzamide], the IC50 was 73.5 nM in test [1] and 168 nM on Lck (p56^kk, active).
For `CN1C(=O)N(c2cc(NC(=O)C=Cc3ccccc3)ccc2Cl)Cc2cnc(N)nc21` [Example 2-14, N-[3-(7-Amino-1-methyl-2-oxo-1,4-dihydro-2H-pyrimido[4,5-d]pyrimidin-3-yl)-4-chloro-phenyl]-3-phenyl-acrylamide], the IC50 in test [1] worked out at 41 nM; against Lck (p56^kk, active), 38.5 nM.
`CN1C(=O)N(c2cc(NC(=O)c3cccc4ccccc34)ccc2Cl)Cc2cnc(N)nc21` [Example 2-15, Naphthalene-1-carboxylic acid [3-(7-amino-1-methyl-2-oxo-1,4-dihydro-2H-pyrimido[4,5-d]pyrimidin-3-yl)-4-chloro-phenyl]-amide]: the IC50 in test [1] was 50 to 150 nM; at Lck (p56^kk, active), 50 to 150 nM.
Take `CN1C(=O)N(c2cc(NC(=O)c3ccc(-c4ccccn4)cc3)ccc2Cl)Cc2cnc(N)nc21` [Example 2-22, N-[3-(7-Amino-1-methyl-2-oxo-1,4-dihydro-2H-pyrimido[4,5-d]pyrimidin-3-yl)-4-chloro-phenyl]-4-pyridin-2-yl-benzamide]: the IC50 is 50 to 150 nM in test [1] and 50 to 150 nM against Lck (p56^kk, active).
Take `CN1C(=O)N(c2cc(NC(=O)c3ccc(-c4ccc[nH]4)cc3)ccc2Cl)Cc2cnc(N)nc21` [Example 2-24, N-[3-(7-Amino-1-methyl-2-oxo-1,4-dihydro-2H-pyrimido[4,5-d]pyrimidin-3-yl)-4-chloro-phenyl]-4-(1H-pyrrol-2-yl)-benzamide]: the IC50 lay within 50 to 150 nM in test [1] and 50 to 150 nM on Lck (p56^kk, active).
